# Reference: paper PMC5947742 (The Journal of Dermatology, 2018)
# Assays:
# Safety and tolerability = type: in vivo, Japanese patients
# [1] = Plasma pharmacokinetics of dabrafenib, its metabolites and trametinib; type: in vivo, Japanese patients; conditions: for plasma AUC at repeat dosing (day 21) compared with single dose (day 1): AUC0-12 h for dabrafenib, AUC0-24 h for trametinib; for time by which plasma (trough) concentrations seemed to reach steady state: repeat dosing of 150 mg dabrafenib b.i.d. and 2 mg trametinib q.d.
Structure (SMILES),time by which plasma (trough) concentrations seemed to reach steady state [1],"adverse event leading to discontinuation (Safety and tolerability; patient 11, phase 2)",plasma AUC at repeat dosing (day 21) compared with single dose (day 1) [1],half-life relative to the dose interval (24 h) ([1]; trametinib 2 mg q.d.),"adverse event leading to discontinuation (Safety and tolerability; patient 1, phase 1)"
"CC(=O)Nc1cccc(-n2c(=O)n(C3CC3)c(=O)c3c(Nc4ccc(I)cc4F)n(C)c(=O)c(C)c32)c1 [Trametinib, trametinib]",≤ 3 week,grade 3 uveitis,higher,approximately 3.5 times the dose interval,
"CC(C)(C)c1nc(-c2cccc(NS(=O)(=O)c3c(F)cccc3F)c2F)c(-c2ccnc(N)n2)s1 [Dabrafenib, dabrafenib]",≤ 3 week,grade 3 uveitis,lower,,grade 3 increased blood alkaline phosphatase

# More lines, main results first:
time by which plasma (trough) concentrations seemed to reach steady state [1],Structure (SMILES),"adverse event leading to discontinuation (Safety and tolerability; patient 11, phase 2)",plasma AUC at repeat dosing (day 21) compared with single dose (day 1) [1],half-life relative to the dose interval (24 h) ([1]; trametinib 2 mg q.d.),"adverse event leading to discontinuation (Safety and tolerability; patient 1, phase 1)"
≤ 3 week,CC(C)(C(=O)O)c1nc(-c2cccc(NS(=O)(=O)c3c(F)cccc3F)c2F)c(-c2ccnc(N)n2)s1 [GSK2298683],,,,
≤ 3 week,CC(C)(CO)c1nc(-c2cccc(NS(=O)(=O)c3c(F)cccc3F)c2F)c(-c2ccnc(N)n2)s1 [GSK2285403],,,,
≤ 3 week,CC(C)c1nc(-c2cccc(NS(=O)(=O)c3c(F)cccc3F)c2F)c(-c2ccnc(N)n2)s1 [GSK2167542],,,,
